Data from article PMC10033154 (Journal of Molecular Structure, 2023).

Biological target: SARS-CoV-2 3CL protease (Severe acute respiratory syndrome coronavirus 2, UniProt P0DTD1)
Test: FRET enzyme activity inhibition assay of SARS-CoV-2 3CLpro
Assay type: biochemical

Q: `COc1ccc(C=C[N+](=O)[O-])cc1OC` [compound f, 3,4-dimethoxyl-β-nitrostyrene] was tested. Which IC50 did it give?
A: The IC50 was 5.07 µM.
